How the values were obtained:
astrocytes [1] = test: Intracellular ATP determination (luciferin-luciferase); assay type: cell-based, mouse
Protocol: Intracellular ATP was measured using a luciferin-luciferase kit (Invitrogen, #22066). Plated astrocytes were trypsinized and washed 3× with PBS buffer (GIBCO #14190). An aliquot of cells was set aside to measure the cell density with a hemocytometer. The cells were then suspended in a lysate buffer (4 mM EDTA and 100 mM Tris, pH 7.75) and immediately heated to 100° C. for 5 minutes to minimize enzymatic changes in ATP levels. The supernatant was collected after a 10,000 g centrifugation for 1 minute and used with the luciferin/luciferase kit according to the manufacturer's instructions. Luminescence was measured with a Synergy™ HT Multi-Detection Microplate Reader (BioTek). ATP levels were normalized by cell density.
Our next approach to investigate the role of mitochondrial metabolism was to directly measure ATP levels in cultures astrocytes using a luciferin-luciferase assay (Invitrogen). Astrocytes were cultured as described above, trypsinized and washed with buffer. The cells were then suspended in a lysate buffer and immediately heated to 100° C. (5 min) to minimize enzymatic changes in ATP levels. After centrifugation, the ATP dependent luminescence of supernatant was measured with a microplate reader (Biotek). FIG. 5C depicts histograms of the direct measurement of intracellular ATP levels relative to untreated cells (control), P2Y-R stimulated (MeADP), then the same measurements in the presence of oligomycin (oligo) or ruthenium 360 (Ru360). We estimated that the resting intracellular ATP concentration in cultured astrocytes was 0.31±0.14 μM ATP/10^4 cells (n=3). […] Finally, we tested whether ruthenium 360 (Ru360; Calbiochem), a polycation that inhibits the electrogenic mitochondrial Ca^2+ uniporter, affected mitochondrial ATP production.

astrocytes [2] = test: Astrocyte survival under t-buOOH oxidative stress in the absence of neurons; assay type: cell-based, mouse
Protocol: To determine whether P2Y-R enhanced mitochondrial metabolism in astrocytes affected neuronal resistance to oxidative stress, we prepared co-cultures of neurons and astrocytes using corning transwell-clear permeable supports, which physically separates the two cell-types by ˜1 mm (# 07-200-170, Fisher scientific). Primary cultures of astrocytes were directly prepared in transwell supports until they were ˜70% confluent. Mouse cortical neurons were then cultured onto glass bottom mattek plates and maintained in B-27/Neurobasal Medium to control glia contamination to less than 0.5% (Invitrogen). After four days, co-cultures were treated with t-buOOH (100 μM) for 4 hours with and without pre-stimulation of ATP (2 μM, 10 minutes). Cells were then stained with the DNA intercalating dye Hoechst 33342 (10 μg/ml, Molecular Probes, #H-3570) and calcein AM (2 μM, Molecular Probes, #C3100). […] We then tested the neuroprotective affects of isoform specific purinergic ligands 2-MeSADP(P2Y1-R) and UTP(P2Y2-R). FIG. 6A depicts histogram plots of the percentage of neurons alive when cocultured with young or old astrocytes. FIG. 6B depicts histogram plots of the percentage of neurons alive pretreated with either 2-MeSADP (2 μM) or UTP (50 μM) for 10 min. A ten-minute pre-treatment of astrocytes with either 2-MeSADP (2 μM), or UTP (50 μM) was equally protective against oxidative stress induced cell death. The % neurons alive after 4.5 hours of t-buOOH treatment was 51±4% (n=1664 neurons, pooled from 4 experiments) for untreated controls, 70±2% (n=2541 neurons, pooled from 4 experiments) for 2-MeSADP and 71±3% (n=1189 neurons, pooled from 4 experiments) for UTP treated co-cultures. […] The % astrocytes alive after 4.5 hours of t-buOOH treatment, in the absence of neurons, was 60±4% (n=294 cells) for control, 77±4% (n=294) for 2-MeSADP and 79±3% (n=333) for UTP treated astrocytes.
It should be noted that stimulation of neuroprotective response in astrocytes is not restricted to signaling through P2Y receptors. For example we have shown that administration of the membrane permeable IP3 analog, IP3BM, is capable of protecting astrocytes from oxidative damage. Thus, it appears possible that any stimulus capable of evoking IP3-mediated calcium release in astrocytes is equally suitable for application in the present treatment methods. To test this possibility, astrocyte cultures subjected to oxidative stress were treated with either 2-MeSADP, or the metabotropic glutamate receptor agonist (1 S, 3 R)-1-aminocyclopentane-1,3-dicarboxylic acid (ACPD), or were left untreated.
To directly examine the role of IP3 gated Ca^2+ release in P2Y-R enhanced astrocyte protection, we used a membrane permeant butyryloxymethyl ester of IP3 (IP3-BM). Cultures of astrocytes were exposed to IP3-BM and Ca^2+ levels were assessed using 2-photon imaging of Fura 2. Ca^2+ increases in response to IP3-BM application were easily detected, but they occurred over a much slower time course than those initiated by ATP treatment. This was not unexpected because of the slow process of IP3-BM movement across the lipid bilayer as well as the time needed to cleave the ester and accumulate IP3 in the cell. Because of the slower time course, we pretreated astrocytes for 20 minutes prior to exposing them to the oxidant stress t-BuOOH. […] The protective effect of IP3-BM treatment was blocked by the IP3R inhibitor, XeC. […]

Mouse cortical neurons = test: Neuronal survival in transwell co-culture with astrocytes under t-buOOH oxidative stress (Hoechst/calcein); assay type: cell-based; conditions: co-cultures; 10 min pre-treatment 2-MeSADP 2 μM or UTP 50 μM; 4.5 hours of t-buOOH
Protocol: Primary cultures of astrocytes were prepared as previously published (Lin et al., 2005). C57BL/6 male mice were purchased from the National Institute of Aging and maintained in standard accredited housing conditions at the University of Texas Health Science Center Animal Facility. Animal protocols were approved by our Institutional Animal Care Use Committee. Astrocytes were cultured in DMEM F-12 media (Invitrogen, # 11039-021) supplemented with 2 mM glutamine, nonessential amino acids, 10% fetal calf serum, 100 U/ml penicillin/streptomycin (Cambrex BioScience Walkersville, #17-602E) and 1% fungizone (Invitrogen, #15290-018) at 37° C. in an atmosphere containing 5% CO2. The culture medium was changed every 3-5 days. Confluent cells were gently removed by a trypsin EDTA solution and re-plated on 35 mm glass bottom chambers (Bioptechs #04200415C) prior to imaging experiments 3-4 days later. Cells were maintained in plastic culture flasks until the final re-seeding of cells onto a glass bottom chamber and were passed up to 3 times for astrocyte only experiments. For co-culture experiments with neurons, primary astrocytes were plated directly onto corning transwell-clear permeable supports, which physically separates the two cell-types by ˜1 mm (# 07-200-170, Fisher scientific). Astrocytes were cultured in transwells until they were ˜70% confluent. Mouse cortical neurons (Cambrex Bio Science Walkersville Inc., # M-CX-300) were then cultured onto 6 well mat-tek glass bottom plates and maintained in Neurobasal Medium (Invitrogen, # 21103-049), 2 mM L-Glutamine (Cambrex BioScience Walkersville, #17-605E), 100 U/ml penicillin/streptomycin (Cambrex BioScience Walkersville, #17-602E) and B-27 with (Invitrogen, #17504-044) and without antioxidants (Invitrogen, #10889-038), which controls glia contamination to less than 0.5%. The transwell supports with cultured astrocytes were placed in the neuron seeded glass bottom chambers for four days before imaging and both cell types were then maintained in neuronal media. For neuron only experiments, the astrocytes on the transwell supports were removed prior to treatments and imaging.
Sensitivity of neurons to oxidative stress was assessed by treating cultures with 100 μM tert-butyl hydrogen peroxide (t-BuOOH, Sigma, #B-2633) for 3 hours. Neurons were then stained with Hoechst 33342 (10 μg/ml, Molecular Probes, #H-3570) to label all cell nuclei and calcein AM (2 μM, #C3100, Molecular Probes, #C3100). […] Calcein fluorescence is only observed in live cells that have maintained their plasma membrane integrity. Images were acquired on an inverted Nikon TE300 microscope with a Hamamatsu ORCAER camera and Open lab software (Improvision).
To determine whether P2Y-R enhanced mitochondrial metabolism in astrocytes affected neuronal resistance to oxidative stress, we prepared co-cultures of neurons and astrocytes using corning transwell-clear permeable supports, which physically separates the two cell-types by ˜1 mm (# 07-200-170, Fisher scientific). Primary cultures of astrocytes were directly prepared in transwell supports until they were ˜70% confluent. Mouse cortical neurons were then cultured onto glass bottom mattek plates and maintained in B-27/Neurobasal Medium to control glia contamination to less than 0.5% (Invitrogen). After four days, co-cultures were treated with t-buOOH (100 μM) for 4 hours with and without pre-stimulation of ATP (2 μM, 10 minutes). Cells were then stained with the DNA intercalating dye Hoechst 33342 (10 μg/ml, Molecular Probes, #H-3570) and calcein AM (2 μM, Molecular Probes, #C3100). […] We then tested the neuroprotective affects of isoform specific purinergic ligands 2-MeSADP(P2Y1-R) and UTP(P2Y2-R). FIG. 6A depicts histogram plots of the percentage of neurons alive when cocultured with young or old astrocytes. FIG. 6B depicts histogram plots of the percentage of neurons alive pretreated with either 2-MeSADP (2 μM) or UTP (50 μM) for 10 min. […]

Molecule: ruthenium 360 [Ru360]
- effect on ability of 2-MeSADP to increase ATP levels (astrocytes [1]; Ru360 1 μM 30 min + 2-MeSADP): completely blocked
- basal ATP levels, % of control values (astrocytes [1]; Ru360 1 μM, 30 min): 60.5%±10.5 % of control

Molecule: N[C@@]1(C(=O)O)CC[C@@H](C(=O)O)C1 [ACPD, (1 S, 3 R)-1-aminocyclopentane-1,3-dicarboxylic acid]
- % of astrocytes alive (astrocytes [2]; 10 minutes pretreatment, 4 hours of t-BuOOH, mean+SD): 66+9%
- astrocyte resistance to oxidative stress (astrocytes [2]; astrocyte cultures subjected to oxidative stress, versus untreated): enhanced

Molecule: O=c1ccn([C@@H]2O[C@H](COP(=O)(O)OP(=O)(O)OP(=O)(O)O)[C@@H](O)[C@H]2O)c(=O)[nH]1 [UTP, uridine 5′-triphosphate]
- % astrocytes alive (astrocytes [2]; absence of neurons, 4.5 hours of t-buOOH, 2-MeSADP or UTP): 79±3%
- % neurons alive (Mouse cortical neurons): 71±3%
